# Patent US20100166854A1, “ELECTROSPUN MATRICES FOR DELIVERY OF HYDROPHILIC AND LIPOPHILIC COMPOUNDS” (priority 2006, published 2010)
# Where a name gives a salt, the structure may show the parent alone.
# Key:
# [1] = Drug release from electrospun PLGA or PLLA fibers in Franz diffusion cells (Example 2); assay type: physicochemical; settings: PBS 37° C.
# Experimental: Poly(lactide-co-glycolide) (50:50) (PLGA) or poly(L-lactide) (PLLA) was dissolved in hexafluoroisopropanol (HFIP) and gently shaken for 3 hours till the polymer was completely dissolved. To this a solution of LH or mupirocin in HFIP was slowly added without any visible precipitation and shaken. The homogeneous drug/polymer solution was then electrospun as per the following parameters on a rotating mandrel. Differential Scanning Calorimetry (DSC) was conducted on the fibers to study drug inclusion. The dried scaffolds were sectioned into uniform weight discs and placed into Franz diffusion cells (Permegear Inc., Bethlehem, Pa.) with phosphate buffered saline at 37° C. rotated at 600 rpm. Samples were withdrawn at specific times and analyzed by HPLC. An equivalent amount of fresh PBS was replaced each time.
# [2] = system: mupirocin-sensitive bacteria; settings: all the strains of mupirocin-sensitive bacteria; cited from earlier work
# [3] = system: Staphylococcus aureus ATCC 25923; settings: 5 μg mupirocin disc, interpretative criteria; cited from earlier work
SMILES,"LH released ([1]; within 48 hrs, PLGA 20% fibers, LH 100% w/v of polymer) [%]","LH burst release ([1]; within the first hour, PLGA 20% fibers, LH 100% w/v of polymer) [%]",MIC [2] [µg/mL],"mupirocin cumulative release ([1]; in the next 72 hours, PLLA 15% fibers, mupirocin 25% w/v of polymer) [wt %]","mupirocin initial burst release ([1]; within an hour, PLLA 15% fibers, mupirocin 25% w/v of polymer) [wt %]",zone diameter considered acceptable [3] [mm]
"CCN(CC)CC(=O)Nc1c(C)cccc1C [LH, Lidocaine hydrochloride]",92,80,,,,
C/C(=C\C(=O)OCCCCCCCCC(=O)O)C[C@@H]1OC[C@H](C[C@@H]2O[C@H]2[C@@H](C)[C@H](C)O)[C@@H](O)[C@H]1O [mupirocin],,,0.06 to 0.5,70,36,22 to 27
